Experimental findings from patent US7718704B2, “Immunosuppressant compounds and compositions” (IRM LLC, priority 2004, dated 2010) are described below.

The target in one test is T1, human EDG-1 (Homo sapiens, UniProt P21453).
T1 construct: c-myc (N); expressed in transfected cells; host or cells: CHO cell clones (membrane preparation)
Description: EDG-1 (S1P1) GTP [γ-35S] binding assay (SPA). In kind it is biochemical. Conditions: membranes of CHO cells expressing human EDG-1. As for the experimental part: (§1) A. In vitro: A scintillation proximity assay (SPA) for measuring GTP [γ-^35S]binding to membranes prepared from CHO cells expressing human EDG/S1P receptors.
EDG-1 (S1P1) GTP [γ-^35S] binding assay: Membrane protein suspensions are prepared from CHO cell clones stably expressing a human EDG-1 N-terminal c-myc tag. Solution of test compounds ranging from 10 mM to 0.01 nM are prepared in DMSO/50 mM HCl and then diluted into assay buffer (20 mM HEPES, pH7.4, 100 mM NaCl, […], 0.1% fat free BSA). Assay buffer containing 10 mM GDP is mixed with wheat germ agglutinin-coated SPA-beads (1 mg/well) followed by the addition of human EDG-1 membrane protein suspension (10 μg/well) and test compound. The bead/membrane/compound assay components are then mixed for 10-15 minutes on a shaker at room temperature. GTP [γ-^35S] ([…]) and bead/membrane/compound assay mixture are added to individual wells of a 96 well Optiplate™(final volume 225 μl/well), sealed and incubated at room temperature for 110 to 120 minutes under constant shaking. After centrifugation (2000 rpm, 10 minutes) luminescence is measured with a TopCount™ instrument.
EC50 values are obtained by fitting the GTP [γ-^35S] binding curves (raw data) with the dose response curve-fitting tool of ORIGIN V. 6.1. […]

For test [1], the system named is EDG-3, EDG-5, EDG-6 and EDG-8. Description: EDG-3, -5, -6 and -8 GTP [γ-35S] binding assays (selectivity versus EDG-1). The format is biochemical, human. The method, then: as §1
Concentrations of EDG receptor expressing membranes range between 13-19 μg per well.

The test system of test [2] is peripheral blood lymphocytes. In words: Measurement of circulating lymphocytes (blood lymphocyte depletion). To be noted: Mus musculus, mice, oral gavage, blood collected 6 and 24 hours after administration, read-out: ED50, effective dose required displaying 50% of blood lymphocyte depletion. In kind it is in vivo, mice (C57bl/6 male). As for the experimental part: Measurements of circulating lymphocytes: Compounds are dissolved in DMSO and diluted to obtain a final concentration of 4% DMSO (v/v, final concentration) and then further diluted in a constant volume of Tween80 25%/H2O, v/v. Tween80 25%/H2O (200 μl), 4% DMSO, and FTY720 (10 μg) are included as negative and positive controls, respectively. Mice (C57bl/6 male, 6-10 week-old) are administered 250-300 μL of compound solution orally by gavages under short isoflurane anesthesia.
Blood is collected from the retro-orbital sinus 6 and 24 hours after drug administration under short isoflurane anesthesia. Whole blood samples are subjected to hematology analysis. Peripheral lymphocyte counts are determined using an automated analyzer. Subpopulations of peripheral blood lymphocytes are stained by fluorochrome-conjugated specific antibodies and analyzed using a fluorescent activating cell sorter (Facscalibur). Two mice are used to assess the lymphocyte depletion activity of each compound screened. The result is an ED50, which is defined as the effective dose required displaying 50% of blood lymphocyte depletion.

T1 sequence (P21453 whole entry): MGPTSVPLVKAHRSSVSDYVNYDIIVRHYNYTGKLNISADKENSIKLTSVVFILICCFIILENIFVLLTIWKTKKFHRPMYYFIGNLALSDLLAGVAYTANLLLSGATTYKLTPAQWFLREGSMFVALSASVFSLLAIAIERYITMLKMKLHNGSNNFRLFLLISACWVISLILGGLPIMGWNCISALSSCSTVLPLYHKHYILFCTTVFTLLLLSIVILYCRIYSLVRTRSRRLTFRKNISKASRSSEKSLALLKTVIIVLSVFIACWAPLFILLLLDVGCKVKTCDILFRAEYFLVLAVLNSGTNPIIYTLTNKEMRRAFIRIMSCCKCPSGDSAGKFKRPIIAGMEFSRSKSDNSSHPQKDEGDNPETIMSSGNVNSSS

`O=C(O)CCNCc1ccc2c(c1)CCC/C2=N\OCc1ccc(C2CCCCC2)c(C(F)(F)F)c1` [Example 1, 3-{[5-(4-Cyclohexyl-3-trifluoromethyl-benzyloxyimino)-5,6,7,8-tetrahydro-naphthalen-2-ylmethyl]-amino}-propionic Acid]: the EC50 (commonly the midpoint of the concentration-response curve) at human EDG-1 was 0.78 nM. Besides, in test [1], the “selectivity for EDG-1 compared to one or more of the other receptors including EDG-3, EDG-5, EDG-6 and EDG-8” value is recorded as “at least 1000 fold”. Take `O=C(O)C1CN(Cc2ccc3c(c2)CCC/C3=N\OCc2ccc(C3CCCCC3)c(C(F)(F)F)c2)C1` [Example 2, 1-[5-(4-Cyclohexyl-3-trifluoromethyl-benzyloxyimino)-5,6,7,8-tetrahydro-naphthalen-2-ylmethyl]-azetidine-3-carboxylic acid]: the median effective dose (ED50) (commonly the dose at which the effect has come halfway, by size or by number of responders) in test [2] amounted to 0.2 mg/kg.
